Test results from publication PMC3139667, “A Screen against Leishmania Intracellular Amastigotes: Comparison to a Promastigote Screen and Identification of a Host Cell-Specific Hit” (PLoS Neglected Tropical Diseases, 2011).
“Also recorded” adds a separate entry of the source. Where a name gives a salt, the structure may show the parent alone. Read-outs that look alike come from different tables or passages of the source.

Assays:
[1] = test system: THP-1; test: Host cell toxicity: THP-1 host nuclei counts in the image-based assay; details: for GI50: read-out: GI50 THP-1; for Selectivity: ratio between parasite GI50 and THP-1 GI50
Method: (§1) Sterile, black, 96-well, clear bottom plates (Greiner Bio-One) were seeded with exponentially growing THP-1 (5×10^5cells/ml). THP-1 were treated with 0.1 µM phorbol myristate acetate (PMA, Sigma) at 37°C for 48 h to achieve differentiation into adherent, non-dividing macrophages. Maturation of THP-1 cells towards monocyte-macrophage like cells is essential to avoid parasitized cells being overgrown by replicating cells. After activation by PMA, cells were washed and incubated with complete RPMI medium containing stationary phase L. donovani promastigotes at a macrophage/promastigote ratio of 1/15. After 4 h incubation at 37°C, non-internalized promastigotes were removed by 2–3 successive washes with RPMI containing 5% FBS and 5% horse serum. Test compounds (10 µM), positive control (2 µM amphotericin B) or negative control (1% DMSO) were then added to the cultures using a Biomek FXp liquid handler (Beckman Coulter). Cultures were incubated at 37°C for 72 h. Cells were then washed with phosphate-buffered saline (PBS), fixed for 30 minutes with 4% formaldehyde, rinsed again with PBS, stained for 2 h with 4′,6′-diamidino-2-phenylindole (DAPI 300 nM) and finally washed with PBS. […] Images were acquired with an INCell Analyzer 1000 automated epi-fluorescent microscope (G.E. Healthcare). The excitation and emission filters used to detect DAPI were 350/50 nm and 460/40 nm respectively. Eight image fields were acquired per well with a 20X objective. The proprietary INCell Developer Toolbox 1.7 software was used for image analysis. Segmentation parameters were set to identify host nuclei with a minimum area of 250 µm^2 and parasite kinetoplast with an average area of 1 µm^2. The intensity of parasite nucleus was too low to be detected with a 20X objective. A border, representing the boundary of the cell, was drawn around the nucleus (total area between 700 and 2000 µm^2). Only parasites found within this area were included in the calculation to eliminate extracellular parasites. False positive parasite detection in the nucleus was also excluded from the calculation. Host cell nuclei and parasite kinetoplasts were counted and the ratio of parasites DNA to host nuclei was selected as the measurement output. Percentage inhibition of parasite growth was calculated as [1-(P/hcx-P/hc^+)/(P/hc^−-P/hc^+)]*100 where P/hcx, P/hc^+ and P/hc^− are parasite per host cell ratio for every well, positive control (amphotericin B) and negative control (DMSO) respectively. Calculation of Z' factor and GI50 curve fitting were carried out as described above.

[2] = test system: L. donovani intracellular amastigotes; test: Intracellular amastigote high-throughput image-based assay in infected THP-1 macrophages; assay type: cell-based, Leishmania donovani; details: for GI50: read-out: GI50 Intracellular amastigote
Method: as §1

[3] = test system: L. donovani axenic amastigotes; test: Dose response study against axenic amastigotes (CellTiter-Glo); assay type: cell-based, Leishmania donovani; details: for GI50: read-out: GI50 Axenic amastigote
Method: L. donovani axenic amastigotes (5×10^5 cells/ml in axenic amastigote media) were dispensed in sterile 96-well flat white opaque assay plates (Greiner Bio-One) using a WellMate multichannel dispenser (Matrix). […] 1% DMSO and amphotericin B (2 µM, 1% DMSO final concentration) were added as negative and positive controls respectively. Axenic amastigotes were incubated with the compounds for 72 h at 37°C with 5% CO2. Parasite viability was then measured using CellTiter-Glo as described above.

[4] = test system: L. donovani promastigotes; test: Promastigote high-throughput ATP-bioluminescence assay; assay type: cell-based, Leishmania donovani; details: for GI50: read-out: GI50 Promastigote
Method: L. donovani promastigotes from an exponentially growing culture were diluted to 10^6/ml in RPMI containing 10% FBS and 10% BHT. The diluted culture (99 µl/well) was dispensed in sterile 96-well flat white opaque assay plates (Greiner Bio-One) using a WellMate multichannel dispenser (Matrix). 1 µl of 1 mM test compound dissolved in DMSO was added to the plates for a final concentration of 10 µM compound and 1% DMSO. Amphotericin B was added as a positive control (final concentration 2 µM, 1% DMSO) and as a negative control, 1 µl DMSO was added (1% final concentration). Compounds and controls were added to the assay plate with the robotic dispenser Biomek FXp liquid handler (Beckman Coulter). Promastigotes were incubated with the compounds for 72 h at 27°C. The parasites were then lysed by adding 50 µl of CellTiter-Glo (Promega) and placed on an orbital shaker for 5 min at room temperature. After lysis, the resulting ATP-bioluminescence was measured using the Analyst HT plate reader (Molecular Devices). Percentage inhibition of parasite growth was calculated for each well as [1-(RLUx-RLU^+)/(RLU^--RLU^+)]*100 where RLUx, RLU^+ and RLU^- are respectively the Relative Light Units for each well, positive (amphotericin B) and negative (DMSO) controls. A screening window coefficient, denoted Z' factor, was used to evaluate the performance of the assay. The Z' factor, calculated as 1-(3σc++3σc−)/(µc+−µc−) where σc+, σc−, µc+ and µc− are respectively the standard deviation and mean values of positive and negative controls, is reflective of the assay signal dynamic range and the data variation associated with signal measurement. […] GI50 curve fitting was carried out using GraphPad Prism 4 Software (GraphPad Software Inc., San Diego, CA).

[5] = Leishmania donovani, THP-1, 72 h, L. donovani in THP-1, 72 h, parasites per host cell
[6] = ratio between promastigote GI50 and intracellular amastigote GI50, >2 more active against intracellular amastigote, <0.4 more active against promastigotes
[7] = Leishmania donovani, 72 h at 37°C, CellTiter-Glo
[8] = Leishmania donovani, 72 h at 27°C, CellTiter-Glo
[9] = PMA-differentiated infected THP-1, 72 h, host nuclei count
[10] = L. donovani in THP-1, 72 h, parasites per host cell

Compound	GI50 ([1]; Homo sapiens, THP-1, 72 h)	Selectivity [1]	Specificity [2, 6]	GI50 [3, 7]	GI50 [4, 8]	also measured
C=CCN1CC[C@]23c4c5ccc(O)c4O[C@H]2C(=O)CC[C@@]3(O)[C@H]1C5 [naloxone]	–	–	–	–	–	Toxicity to the host macrophage (in words) ([1]; dose response, up to 50 µM): not toxic; Primary screen against intracellular amastigotes, hit selection ([2]; 10 µM, duplicates, hit = 60% parasite growth inhibition and not more than 20% reduction in THP-1 numbers): not selected as a hit; Activity against intracellular amastigotes (in words) ([2]; dose response, up to 50 µM): inactive; also recorded: did not show any activity; Activity against axenic amastigotes (in words) ([3]; dose response, up to 50 µM): inactive; Primary screen against promastigotes, hit selection ([4]; 10 µM, hit = 60% parasite growth inhibition): not selected as a hit; Activity against promastigotes (in words) ([4]; dose response, up to 50 µM): inactive
CCN(CC)c1ccc(C(=C2C=CC(=[N+](CC)CC)C=C2)c2ccccc2)cc1 [Brilliant green]	1.64 µM	15.88	0.02	0.03 µM	0.1 µM	GI50 [2, 5]: 6 µM
CN(C)C(=O)C(CCN1CCC(O)(c2ccc(Cl)cc2)CC1)(c1ccccc1)c1ccccc1 [Loperamide Hydrochloride]	–	–	–	> 50 µM	17.3 µM	–
C[CH2][Hg][S]c1ccccc1C(=O)[O-].[Na+] [Thimerosal]	–	26.18	–	–	–	GI50 [1, 9]: 12.8 µM; GI50 ([3]; 72 h at 37°C, CellTiter-Glo): 1.5 µM; GI50 ([4]; 72 h at 27°C, CellTiter-Glo): 0.49 µM
[H]/N=C(\N/C(=N/[H])NCCCCCCNC(=N)NC(=N)Nc1ccc(Cl)cc1)Nc1ccc(Cl)cc1 [Chlorhexidine]	> 16.5 µM	9.27	1.56	4.78 µM	2.81 µM	GI50 [2, 5]: 1.79 µM
C[C@@H]1C[C@@H]([C@H](O)CC2CC(=O)NC(=O)C2)C(=O)[C@@H](C)C1 [Cycloheximide]	21 µM	18.13	2.55	–	–	GI50 ([2]; Leishmania donovani, THP-1, 72 h): 1.15 µM; GI50 ([3]; Leishmania donovani, 72 h): 0.39 µM; GI50 ([4]; Leishmania donovani, 72 h): 2.95 µM
CN1CCc2cccc3c2[C@H]1Cc1ccc(O)c(O)c1-3 [R(-)-Apomorphine]	–	6.1	–	–	–	GI50 [1, 9]: > 16.5 µM; Specificity [2]: 14.12; GI50 [2, 10]: 2.7 µM; GI50 ([3]; 72 h at 37°C, CellTiter-Glo): 5.2 µM; GI50 ([4]; 72 h at 27°C, CellTiter-Glo): 38.1 µM
C[C@@H]1CC[C@@]2(OC1)O[C@H]1[C@@H](O)[C@H]3[C@@H]4CC[C@H]5C[C@@H](O[C@@H]6O[C@H](CO)[C@H](O[C@@H]7O[C@H](CO)[C@@H](O)[C@H](O[C@@H]8OC[C@@H](O)[C@H](O)[C@H]8O)[C@H]7O[C@@H]7O[C@H](CO)[C@H](O)[C@H](O[C@@H]8O[C@H](CO)[C@@H](O)[C@H](O)[C@H]8O)[C@H]7O)[C@H](O)[C@H]6O)[C@H](O)C[C@]5(C)[C@H]4CC[C@]3(C)[C@H]1[C@@H]2C [Digitonin]	13.5 µM	3.075	–	13.8 µM	4.38 µM	–
CC[C@@H](C(=O)[C@@H](C)[C@@H](O)[C@H](C)[C@@H]1O[C@@H]([C@@H](CC)C(=O)O)CC[C@@H]1C)[C@H]1O[C@]2(C=C[C@@H](O)[C@]3(CC[C@@](C)([C@H]4CC[C@](O)(CC)[C@H](C)O4)O3)O2)[C@H](C)C[C@@H]1C [Salinomycin]	16.1 µM	17.30	–	0.06 µM	2.71 µM	Specificity [2]: 2.92; GI50 [2, 5]: 0.92 µM
CCCCCC[C@H]1C(=O)O[C@H](C)[C@H](NC(=O)c2cccc(NC=O)c2O)C(=O)O[C@@H](C)[C@@H]1OC(=O)CC(C)C [Antimycin A]	> 50 µM	500	0.05	0.01 µM	0.1 µM	GI50 [2, 5]: 2.15 µM
CCC(c1ccc(OCCN(CC)CC)cc1)C(CC)c1ccc(OCCN(CC)CC)cc1 (centres unmarked) [4,4′-Diethylaminoethoxyhexestrol]	–	4.36	3.57	–	–	GI50 [1, 9]: 6.11 µM; GI50 [2, 10]: 1.4 µM; GI50 ([3]; 72 h at 37°C, CellTiter-Glo): 10.9 µM; GI50 ([4]; 72 h at 27°C, CellTiter-Glo): 5 µM
COC(=O)C1=C(C)NC(C)=C(C(=O)OCC(C)C)C1c1ccccc1[N+](=O)[O-] (centres unmarked) [Nisoldipine]	> 16.5 µM	1.67	0.30	13.9 µM	9.85 µM	GI50 [2, 5]: 32.2 µM
COC(=O)C[C@](O)(CCC(C)(C)O)C(=O)O[C@@H]1C(OC)=C[C@]23CCCN2CCc2cc4c(cc2[C@H]13)OCO4 [Harringtonin]	–	0.02	–	–	–	GI50 [1, 9]: 0.1 µM; Specificity [2]: 3.39; GI50 [2, 10]: 4.89 µM; GI50 ([3]; 72 h at 37°C, CellTiter-Glo): 10.6 µM; GI50 ([4]; 72 h at 27°C, CellTiter-Glo): 16.6 µM
CC(=O)[C@]1(O)Cc2c(O)c3c(c(O)c2[C@@H](O[C@H]2C[C@H](N)[C@H](O)[C@H](C)O2)C1)C(=O)c1ccccc1C3=O [Idarubicin]	1.89 µM	0.40	–	1.78 µM	4.65 µM	–
CCN(CCCCOC(=O)c1ccc(OC)c(OC)c1)C(C)Cc1ccc(OC)cc1 (centres unmarked) [Mebeverine]	> 50 µM	5.88	0.81	2.36 µM	6.91 µM	GI50 [2, 5]: 8.5 µM
O=C(Nc1ccc(Cl)c(Cl)c1)c1cc(Cl)cc(Cl)c1O [3,3′,4′,5-tetrachlorosalicylanilide]	0.32 µM	0.22	–	1.38 µM	1.45 µM	–
CC(C)(C)c1ccc(C(O)CCCN2CCC(C(O)(c3ccccc3)c3ccccc3)CC2)cc1 (centres unmarked) [Terfenadine]	–	–	–	0.61 µM	11.9 µM	–
Clc1ccc(CO/N=C(\Cn2ccnc2)c2ccc(Cl)cc2Cl)c(Cl)c1 [Oxiconazole]	–	–	0.40	–	–	–
CCCCCCCCCCCCCCCC[n+]1ccccc1 [Cetylpyridinium chloride]	–	–	–	–	–	Specificity [2]: 8.05
CCCCN(CCCC)C(=S)[S-].CCCCN(CCCC)C(=S)[S-].[Zn+2] [Zinc Dibutyldithiocarbamate]	–	5.89	–	–	–	Specificity [2]: 0.17
COc1c(Cl)cc2c(c1OC)N(C)[C@@H]1N3C(=O)[C@@]4(C)SS[C@@]3(C(=O)N4C)[C@H](O)[C@]21O [Sporidesmin A]	–	0.02	–	–	–	GI50 [1, 9]: 0.02 µM; GI50 ([3]; 72 h at 37°C, CellTiter-Glo): 1.66 µM; GI50 ([4]; 72 h at 27°C, CellTiter-Glo): 1.18 µM
CC(C)(C)CC(C)(C)c1ccc(OCCOCC[N+](C)(C)Cc2ccccc2)cc1.[Cl-] [Benzetonium chloride]	–	–	1.13	–	–	GI50 [2, 10]: 10 µM; GI50 ([3]; 72 h at 37°C, CellTiter-Glo): 10.7 µM; GI50 ([4]; 72 h at 27°C, CellTiter-Glo): 11.3 µM
Cc1c(-c2ccc(O)cc2)n(Cc2ccc(OCCN3CCCCCC3)cc2)c2ccc(O)cc12 [Bazedoxifene]	–	–	–	> 16.5 µM	6.52 µM	–
Gramicidin	–	12.19	–	–	–	GI50 [1, 9]: 8.38 µM; GI50 ([3]; 72 h at 37°C, CellTiter-Glo): 5.76 µM; GI50 ([4]; 72 h at 27°C, CellTiter-Glo): 0.68 µM
